The values that follow come from US8981112B2, “Inhibitors of β-secretase” (Boehringer Ingelheim International GmbH, priority 2012, dated 2015).

Like-named read-outs stand apart in the source and are kept apart here.

Series [1] relates to production of Abeta1-x peptides in H4 neuroglioma cell line stably expressing human APP. The series is described as follows: H4-APPwt Cell-Based Assay (Assay 2), Abeta1-x production. As to the method:
H4-APPwt Cell-Based Assay (Assay 2)
Cellular potency of the compounds of the invention was assessed in an assay monitoring production of Abeta1-x peptides in the H4 neuroglioma cell line (ATCC, Cat. #HTB-148) stably expressing human APP, using an immunoassay such as AlphaLISA (PerkinElmer, Cat.# AL288). Tested compounds were dissolved in DMSO and pre-diluted in the culture medium (DMEM containing 10% FBS and 1% penicillin/streptomycin) to achieve twice the final concentration of the compounds in the assay. Equal volumes of the 2× solutions of the tested compounds and cell suspension were added to a 96-well culture plate, so that each well contained ˜10,000 cells in a final volume of 200 μl. Final concentration of DMSO in the assay was 0.2%. The plates were incubated for 5 hrs at 37° C., 5% CO2 to allow cells to attach to the bottom of the wells in the presence of the tested compounds. Then the media was removed and replaced with fresh media containing tested compounds at the same final concentration. The plates were incubated for 18 hrs at 37° C., 5% CO2. Concentrations of Ab1-x were determined using AlphaLISA immunoassay (PerkinElmer, Cat.# AL288) following manufacturer's protocol. Concentrations of Abeta1-x in the wells containing either DMSO or 10 μM beta-secretase inhibitor (BACE inhibitor IV, EMD Bioscience, Cat. #565788) were used as uninhibited and background controls, correspondingly, for calculating percent inhibition values for each well with the tested compounds.

A further series concerns the target hERG (Homo sapiens (Human), UniProt Q12809). The series can be described thus: hERG-Channel Assay (Assay 3), whole-cell patch clamp. The series is classed as cell-based. The conditions noted are these: for inhibition at 10 µM: human, HEK293 cells stably transfected with hERG, pH 7.4, HEK293 cells transfected with hERG. The text has this: hERG-Channel Assay (Assay 3)
HEK (human embryonic kidney) 293 cells were stably transfected with hERG cDNA.
Cells were superfused with a bath solution containing (mM): NaCl (137), KCl (4.0), MgCl2 (1.0), CaCl2 (1.8), Glucose (10), HEPES (10), pH 7.4 with NaOH. Patch pipettes were made from borosilicate glass tubing using a horizontal puller and filled with pipette solution containing (mM): K-aspartate (130), MgCl2 (5.0), EGTA (5.0), K2ATP (4.0), HEPES (10.0), pH 7.2 with KOH. Resistance of the microelectrodes was in the range between 2 and 5 MΩ.
Membrane currents were recorded using an EPC-10 patch clamp amplifier and PatchMaster software. hERG-mediated membrane currents were recorded at 35° C., using the whole-cell configuration of the patch-clamp technique. Transfected HEK293 cells were clamped at a holding potential of −60 mV and hERG-mediated inactivating tail currents were elicited using a pulse pattern with fixed amplitudes (activation/inactivation: 40 mV for 2000 ms; recovery: −120 mV for 2 ms; ramp to 40 mV in 2 ms; inactivating tail current: 40 mV for 50 ms) repeated at 15 s intervals. During each inter-pulse interval 4 pulses scaled down by a factor of 0.2 were recorded for a P/n leak subtraction procedure. Rs compensation was employed up to a level that safely allowed recording devoid of ringing.
The different concentrations of the test compound were applied sequentially on each of the different cells investigated. A steady state level of baseline current was measured for at least 6 sweeps prior to the application of the first test compound concentration.
The test compound was dissolved in DMSO to yield a master stock solution which was diluted further in DMSO to stock solutions needed for the lower concentrations. Final dilutions in extracellular buffer were prepared freshly from these stocks by a 1:1000 dilution step each before starting the experiments.
Peak current amplitudes were measured 3 ms after the ramp to +40 mV. For baseline and each concentration the peak currents of the three last sweeps before application of the next concentration were averaged. Residual currents (I/I0) were calculated for each cell as the fraction of actual average peak current and average baseline peak current. Results are presented as percent (%) inhibition (1−I/I0)*100% at 10 μM.
Background: The hERG channel carries a current that helps repolarise heart muscle cells.

Series [2] deals with truncated human beta-secretase, BACE1 (amino acids 1-454) (Homo sapiens (Human), UniProt P56817). The series is described as follows: BACE1 Assay (Assay 1), fluorescence quench assay. In kind it is biochemical. Here is the method:
The substrate was dissolved at 1 mg/ml in DMSO.
The assay was performed in the presence of OptiMEM (supernatant collected over 24 h and cleared from cellular debris by centrifugation) containing the ectodomain of BACE1, 25 μl water containing the desired 2-fold concentration of test compound and 2% DMSO, 1 μM substrate peptide, 20 mM NaOAc, pH 4.4, and 0.04% Triton-X100 in a total assay volume of 50 μl in a 384 well plate. In general, 25 μl of compound dilution were given to the plate followed by the addition of 10 μl of BACE1 containing OptiMEM™ diluted 1:10 in water with 0.2% Triton X-100. The reaction was started with the addition of 15 μl substrate in NaOAc buffer. The reaction was incubated at rt (dark) in an Envision® multilabel reader (Perkin Elmer) and the cleavage of the substrate was recorded as kinetic for 60 min at ex: 485 nm, em: 538 nm. Blank wells containing no enzyme were included on each plate.
The intensity of fluorescence was regressed against time in order to derive velocities of reaction in all 384 wells. These velocities were used for calculating percent control using an uninhibited control containing 1% DMSO as 100% and blank control performed in the absence of enzyme as 0%. IC50 values were calculated by fitting percent control vs. test compound concentration using Assay Explorer.

Series [3] can be described thus: In Vitro Phospholipidosis Assay (Assay 4), Nile red staining. The series is classed as cell-based. The conditions noted are these: human, first effect concentration, U937 cells, read-out: Phospholipidosis FEC IC50 μM (assay 4). Here is the method: In Vitro Phospholipidosis Assay (Assay 4)
The phospholipidogenic potential of test compounds was assayed using the human hematopoetic U937 cell line. The test principle was to analyze the phospholipid content by staining the cells with the fluorescent dye Nile red.
U937 cells were seeded into cell culture plates at 0.5×10^6 cells/mL in RPMI medium containing 10% FBS, 1% DMSO, and 0.005% gentamicin. The cells were then cultivated with or without different concentrations of test compounds for 48 h under standard culture conditions.
For harvesting the cells were centrifuged at 130×g for 4 min and washed once with PBS. Then 2×0.5 mL cell suspension was prepared for non-fixed cell measurement (0.5 mL for propidium iodide (PI) viability measurement and 0.5 mL for Nile red measurement).
The remaining cells were fixed with 3.7% formaldehyde for 30 min. After a further centrifugation step cells were resuspended with 1.3 mL Nile red working solution (1 μg/mL) and incubated for 5 min at rt. The cell suspension was then washed twice with 3 mL PBS and centrifuged with 130×g for 4 min. The supernatant was discarded and the cells were resuspended with 0.5 mL PBS and kept for flow cytometry measurement. For Nile red staining of the 0.5 mL non-fixed cell samples, 50 μL of a ready to use Nile red solution (10 μg/mL) were added per sample. Samples were kept on ice for 5 min. Thereafter, they were washed once with 4 mL PBS (4° C., 250×g for 8 min) and finally resuspended in 400 μL PBS and kept for flow cytometry measurement.
For the viability measurement, 12.5 μL of the ready to use PI solution (10 μg/mL) were added to the 0.5 mL non-fixed cell suspension. After 15 min of incubation on ice, the samples were measured by flow cytometry using a Coulter Epics XL/MCL flow cytometer.
The viability of the cells of each sample was determined by flow cytometry measurement of the PI content at channel 2 (568-590 nm). Cut-off gates for the fluorescence-dependent differentiation between live and dead cells were defined based on the analysis of cell culture medium control samples.
Only samples with a cell viability of >=90% relative to control samples were analyzed for phospholipidosis. For that, each Nile red sample (non-fixed and fixed samples) was measured by flow cytometry at channel 1 (504-541 nm) and channel 4 (660-680 nm).
For each channel, relative Nile red fluorescence intensity of a test sample was calculated compared to control samples and expressed as percentage of control fluorescence intensity. The assessment of the phospholipidogenic potential and the first effect concentration (FEC) of a test compound was done manually based on the fluorescence intensities at both wavelengths for the fixed cells as well as for the non-fixed cells.

[4] abbreviates: Homo sapiens, Table 2 comparison examples, read-out: H4-Cell assay (assay 2).
Setting [5] is: Table 2 comparison examples, read-out: BACE IC50 (assay 1).
[6] abbreviates: H4 neuroglioma cells expressing human APP, Abeta1-x, read-out: H4-APPwt cell IC50 nM (assay 2).
Where [7] appears, read: read-out: BACE1 IC50 nM (assay 1).

hERG, sequence (Q12809 whole entry): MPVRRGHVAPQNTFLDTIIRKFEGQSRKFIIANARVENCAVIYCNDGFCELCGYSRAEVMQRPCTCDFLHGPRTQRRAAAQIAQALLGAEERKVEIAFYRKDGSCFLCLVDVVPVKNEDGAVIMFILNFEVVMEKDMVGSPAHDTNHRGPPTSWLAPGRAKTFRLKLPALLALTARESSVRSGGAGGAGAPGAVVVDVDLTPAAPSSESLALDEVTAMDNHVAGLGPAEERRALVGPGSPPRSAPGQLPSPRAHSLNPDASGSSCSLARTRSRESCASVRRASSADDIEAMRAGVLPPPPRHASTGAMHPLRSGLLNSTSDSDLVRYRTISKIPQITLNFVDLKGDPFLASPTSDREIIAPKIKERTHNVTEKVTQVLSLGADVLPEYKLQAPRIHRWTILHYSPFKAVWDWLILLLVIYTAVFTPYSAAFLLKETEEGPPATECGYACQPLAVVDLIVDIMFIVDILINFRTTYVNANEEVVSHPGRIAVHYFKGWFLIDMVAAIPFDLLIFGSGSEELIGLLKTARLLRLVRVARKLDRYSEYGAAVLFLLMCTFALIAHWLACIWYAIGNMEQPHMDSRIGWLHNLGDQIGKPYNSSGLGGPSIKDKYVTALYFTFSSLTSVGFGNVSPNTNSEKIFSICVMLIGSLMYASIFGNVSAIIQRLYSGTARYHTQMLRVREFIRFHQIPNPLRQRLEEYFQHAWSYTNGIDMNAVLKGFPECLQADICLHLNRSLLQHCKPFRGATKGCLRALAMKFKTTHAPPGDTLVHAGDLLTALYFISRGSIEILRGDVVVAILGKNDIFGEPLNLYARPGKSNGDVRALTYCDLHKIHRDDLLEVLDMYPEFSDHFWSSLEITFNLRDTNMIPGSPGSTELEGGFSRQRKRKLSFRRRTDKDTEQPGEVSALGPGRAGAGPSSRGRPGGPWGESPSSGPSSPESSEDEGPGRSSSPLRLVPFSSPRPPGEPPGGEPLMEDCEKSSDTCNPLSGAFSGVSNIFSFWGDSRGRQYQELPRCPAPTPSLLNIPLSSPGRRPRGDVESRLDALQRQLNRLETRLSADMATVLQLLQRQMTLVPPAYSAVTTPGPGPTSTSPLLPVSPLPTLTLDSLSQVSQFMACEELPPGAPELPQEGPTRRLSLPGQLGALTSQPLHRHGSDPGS
truncated human beta-secretase, BACE1 (amino acids 1-454), sequence (P56817 22-454): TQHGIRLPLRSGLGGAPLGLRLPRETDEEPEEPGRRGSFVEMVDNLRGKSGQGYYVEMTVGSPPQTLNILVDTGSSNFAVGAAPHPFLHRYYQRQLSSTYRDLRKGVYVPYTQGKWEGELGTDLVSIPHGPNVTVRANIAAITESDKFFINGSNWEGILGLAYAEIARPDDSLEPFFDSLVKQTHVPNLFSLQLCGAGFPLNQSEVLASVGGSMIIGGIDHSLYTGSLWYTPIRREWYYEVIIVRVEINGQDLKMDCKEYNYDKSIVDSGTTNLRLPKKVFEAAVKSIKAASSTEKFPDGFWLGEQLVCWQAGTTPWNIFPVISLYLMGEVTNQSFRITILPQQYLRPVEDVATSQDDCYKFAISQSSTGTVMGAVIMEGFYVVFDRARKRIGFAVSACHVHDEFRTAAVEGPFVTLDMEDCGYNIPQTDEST

Take `COC1CCC2(CC1)Cc1ccc(C#N)cc1C21N=C(N)N(CC2CCCO2)C1=O` (centres unmarked) [Comparison example drawing 11, reference compound]: in series [1] (setting [4]), the IC50 was found to be 7 nM. The “hERG (assay 3)” value at hERG (at 10 μM, Table 2 comparison examples) is given as “hERG (assay 3) 16% at 10 μM”.

As to `COCCN1C(=O)C2(N=C1N)c1cc(C#N)ccc1C[C@]21CC[C@@H](OC)CC1` (some centres unmarked) [Comparison example drawing 14, reference compound], the figures for the IC50 in series [1] (setting [4]) and in series [2] (setting [5]) were 16 nM and 49 nM, respectively.

As to `COC1CCC2(CC1)Cc1ccc(C#N)cc1C21N=C(N)N(C(C)C)C1=O` (centres unmarked) [Comparison example drawing 17, reference compound], the IC50 was found to be 16 nM in series [1] (setting [4]) and 107 nM in series [2] (setting [5]).

Regarding `CO[C@H]1CC[C@]2(CC1)Cc1ccc(CCC3CC3)cc1[C@]21N=C(N)N(C[C@@H]2CCO2)C1=O` [Comparison example drawing 20, reference compound], the results for the IC50 in series [1] (setting [4]) and in series [2] (setting [5]) were 16 nM and 415 nM, respectively.

As a reminder, the inhibition is the change of the read-out against control, counted positive when it falls. Low values mean a weak effect, high ones a strong effect. With `CC[C@@H]1C[C@]2(CC[C@H]1OC)Cc1ccc(C#N)cc1[C@]21N=C(N)N(Cc2ncccn2)C1=O` [Example 1], the IC50 in series [1] (setting [6]) was determined as 0.76 nM; in series [2] (setting [7]), 11 nM. Besides, on hERG, testing at 10 µM gave an inhibition of 8%. In series [3], the IC50 at 48 h amounted to 200 µM.

For `CC[C@@H]1C[C@]2(CC[C@H]1OC)Cc1ccc(C#N)cc1[C@]21N=C(N)N(CC(C)(C)F)C1=O` [Example 3], the IC50 was determined as 0.57 nM in series [1] (setting [6]) and 10 nM in series [2] (setting [7]). In addition, at hERG, 10 µM produced 9% inhibition. In addition, the IC50 at 48 h in series [3] is greater than 200 µM.

In the case of `CC[C@H]1C[C@@]2(CC[C@@H]1OC)Cc1ccc(C#N)cc1[C@]21N=C(N)N(C[C@H]2CCCO2)C1=O` [Example 5], the IC50 in series [1] (setting [6]) came out at 0.9 nM. This molecule also had an inhibition at 10 µM on hERG of 7%. Besides, the IC50 at 48 h in series [3] amounted to 200 µM.

In the case of `COCCN1C(=O)[C@]2(N=C1N)c1cc(C#N)ccc1C[C@@]21CC[C@H](OC)[C@@H](C)C1` [Example 7], the values for the IC50 in series [1] (setting [6]) and in series [2] (setting [7]) were 1.42 nM and 2 nM, respectively. Besides, at hERG, the inhibition at 10 µM was determined as 8%. Also, the IC50 at 48 h in series [3] was found to be 400 µM.

For the molecule `CO[C@H]1[C@H](C)C[C@@]2(Cc3ccc(C#N)cc3[C@]23N=C(N)N(Cc2ncc(F)cn2)C3=O)C[C@@H]1C` [Example 10], the IC50 in series [1] (setting [6]) came out at 1.12 nM; in series [2] (setting [7]) it was 9 nM. On hERG, at 10 µM the inhibition was 38%. For the same molecule, the IC50 at 48 h in series [3] came out at 200 µM.

As to `CO[C@H]1[C@H](C)C[C@@]2(Cc3ccc(C#N)cc3[C@]23N=C(N)N(CC2(C)COC2)C3=O)C[C@@H]1C` [Example 11], the IC50 in series [1] (setting [6]) amounted to 0.35 nM; in series [2] (setting [7]), 4 nM. The same molecule had an inhibition at 10 µM on hERG of 6%. For the same molecule, the IC50 at 48 h in series [3] was greater than 400 µM.

`CO[C@H]1[C@H](C)C[C@@]2(Cc3ccc(C#N)cc3[C@]23N=C(N)N(CC2CCOCC2)C3=O)C[C@@H]1C` [Example 16]: the IC50 in series [1] (setting [6]) came out at 0.2 nM; in series [2] (setting [7]), 11 nM. The molecule also yielded an inhibition at 10 µM against hERG of 6%. Also, the IC50 at 48 h in series [3] amounted to 200 µM.

As for `CO[C@H]1[C@H](C)C[C@@]2(Cc3ccc(C#N)cc3[C@]23N=C(N)N(CCC2COC2)C3=O)C[C@@H]1C` [Example 19], the figures for the IC50 in series [1] (setting [6]) and in series [2] (setting [7]) were 0.4 nM and 6 nM, respectively. At 10 µM the inhibition on hERG was 8%. Also, the IC50 at 48 h in series [3] came to 400 µM.

Take `CO[C@H]1[C@H](C)C[C@@]2(Cc3ccc(C#N)cc3[C@]23N=C(N)N(Cc2ccncn2)C3=O)C[C@@H]1C` [Example 24]: the IC50 in series [1] (setting [6]) was 0.65 nM; in series [2] (setting [7]), 5 nM. The molecule further gave an inhibition at 10 µM against hERG of 23%. The IC50 at 48 h in series [3] amounted to 200 µM.

As to `CO[C@H]1[C@H](C)C[C@@]2(Cc3ccc(F)cc3[C@]23N=C(N)N(C[C@@H]2CCOC2)C3=O)C[C@@H]1C` [Example 25], the IC50 in series [1] (setting [6]) was 0.99 nM. At hERG, this molecule gave an inhibition at 10 µM of 10%. Moreover, the IC50 at 48 h in series [3] was found to be 200 µM.

In the case of `CO[C@H]1CC[C@@]2(Cc3ccc(C#N)cc3[C@]23N=C(N)N(CC2COCCO2)C3=O)C[C@@H]1C` (some centres unmarked) [Example 27], the IC50 turned out to be 0.95 nM in series [1] (setting [6]) and 6 nM in series [2] (setting [7]). In addition, at hERG, the inhibition at 10 µM came out at 19%. In addition, in series [3], the IC50 at 48 h is greater than 200 µM.
